# Data reported in patent US4321265A, “7α-Methoxycephalosporins” (Toyama Chemical Co., Ltd., priority 1977, dated 1982).
# Tests used:
# [1] = system: Acinetobacter caloaceticus A-6; experiment: Minimum inhibitory concentration (MIC), Heart Infusion agar; type: cell-based; settings: A6; Acinetobacter caloaceticus A-6; 10^6 cells/ml; 20 hours, 37° C.; read-out: minimum inhibitory concentration (MIC)
# Procedure: (§1) Antibacterial activities of the representative compounds (Ib) of the 7α-methoxycephalosporins according to this invention are shown in Table 1. [drawing 20]
# (§2) The figures given in Table 1 represent the minimum inhibitory concentration (MIC in mcg/ml) of each compound, which was determined according to the method described in "Chemotherapy (Society of Chemotherapy, Japan), Vol. 16, 98-99 (1968)": A culture obtained by cultivating the test bacterium in a Heart Infusion broth (Eiken Kagaku Co.) was inoculated into a Heart Infusion agar medium (Eiken Kagaku Co.). After 20 hours of the incubation at 37° C., the growth of the bacterium was inspected to determine the minimum inhibitory concentration (MIC in mcg/ml). The inoculation rate of the bacterium was 10^4 cells/plate (10^6 cells/ml).
# (§3) (1) Minimum inhibitory concentration (MIC in mcg/ml).
# [2] = system: C. freundii GN-346 (Cephalosporinase-producing bacterium); experiment: as above; type: cell-based; settings: Citrobacter freundii, GN346; C. freundii GN-346; 10^6 cells/ml; 20 hours, 37° C.; read-out: minimum inhibitory concentration (MIC)
# Procedure: as §1, §2, §3
# Citrobacter N-7 = experiment: as above; type: cell-based; settings: N7; Citrobacter N-7; 10^6 cells/ml; 20 hours, 37° C.; read-out: minimum inhibitory concentration (MIC)
# Procedure: as §1, §2, §3
# E. coli NIHJ = experiment: as above; type: cell-based; settings: Escherichia coli; E. coli NIHJ; 10^6 cells/ml; 20 hours, 37° C.; read-out: minimum inhibitory concentration (MIC)
# Procedure: as §1, §2, §3
# Ent. cloacae IID977 = experiment: as above; type: cell-based; settings: Enterobacter cloacae; Ent. cloacae IID977; 10^6 cells/ml; 20 hours, 37° C.; read-out: minimum inhibitory concentration (MIC)
# Procedure: as §1, §2, §3
# K. pneumoniae Y-50 = experiment: as above; type: cell-based; settings: Klebsiella pneumoniae, Y50; K. pneumoniae Y-50; 10^6 cells/ml; 20 hours, 37° C.; read-out: minimum inhibitory concentration (MIC)
# Procedure: as §1, §2, §3
# Klebsiella spp. Y-72 = experiment: as above; type: cell-based; settings: SPP.Y72; Klebsiella spp. Y-72; 10^6 cells/ml; 20 hours, 37° C.; read-out: minimum inhibitory concentration (MIC)
# Procedure: as §1, §2, §3
# Prot. vulgaris GN-76 = experiment: as above; type: cell-based; settings: Proteus vulgaris, GN76; Prot. vulgaris GN-76; 10^6 cells/ml; 20 hours, 37° C.; read-out: minimum inhibitory concentration (MIC)
# Procedure: as §1, §2, §3
# Ps. aeruginosa IFO-3445 = experiment: as above; type: cell-based; settings: Pseudomonas aeruginosa, IFO3445; Ps. aeruginosa IFO-3445; 10^6 cells/ml; 20 hours, 37° C.; read-out: minimum inhibitory concentration (MIC)
# Procedure: as §1, §2, §3
# Ps. aeruginosa S-68 = experiment: as above; type: cell-based; settings: Pseudomonas aeruginosa, S68; Ps. aeruginosa S-68; 10^6 cells/ml; 20 hours, 37° C.; read-out: minimum inhibitory concentration (MIC)
# Procedure: as §1, §2, §3
# [3] = system: S. aureus F-19 (Penicillinase-producing bacterium); experiment: as above; type: cell-based; settings: Staphylococcus aureus; S. aureus F-19; 10^6 cells/ml; 20 hours, 37° C.; read-out: minimum inhibitory concentration (MIC)
# Procedure: as §1, §2, §3
# Ser. marcescens IID620 = experiment: as above; type: cell-based; settings: Serratia marcescens; Ser. marcescens IID620; 10^6 cells/ml; 20 hours, 37° C.; read-out: minimum inhibitory concentration (MIC)
# Procedure: as §1, §2, §3
# Ser. marcescens W-8 = experiment: as above; type: cell-based; settings: Serratia marcescens, W8; Ser. marcescens W-8; 10^6 cells/ml; 20 hours, 37° C.; read-out: minimum inhibitory concentration (MIC)
# Procedure: as §1, §2, §3
# Ser. marcescens W-35 = experiment: as above; type: cell-based; settings: Serratia marcescens, W35, 20 h, Ser. marcescens W-35; 10^6 cells/ml; 20 hours, 37° C. (Table 1); read-out: minimum inhibitory concentration (MIC)
# Procedure: as §1
# as §2, with “The inoculation rate of the bacterium was 10^4 cells/plate (10^6 cells/ml).” left out
# as §3
# [4] = target: T1, Cephalosporinase (E. coli GN-5482) (Escherichia coli, UniProt P00811); experiment: Stability to β-lactamase, iodometry (Perret); type: biochemical; settings: E. coli GN-5482 cephalosporinase; CER = 100; 30° C., pH 7.0
# T1 construct: native preparation, details not in excerpts
# Procedure: (§4) The stability to β-lactamase was examined by iodometry at 30° C. by the method of Perret (Perret, C. J., "Iodometric assay of penicillinase", Nature, 174, 1012-1013 (1954)), except that a 0.1 M phosphate buffer solution (pH 7.0) was used in place of the 0.2 M phosphate buffer solution (pH 6.5). The stability of each compound was shown in Table 2 in terms of relative degree of hydrolysis, assuming the stability of Cephaloridin (CER) to cephalosporinase as 100 and the stability of Penicillin G (PCG) to penicillinase as 100.
# [5] = target: T2, Cephalosporinase (S. marcescens W-8) (Serratia marcescens, UniProt P18539); experiment: Stability to β-lactamase, iodometry (Perret); type: biochemical; settings: S. marcescens W-8 cephalosporinase; CER = 100; 30° C., pH 7.0
# T2 construct: native preparation, details not in excerpts
# Procedure: as §4
# [6] = system: Penicillinase (E. coli TK-3); experiment: Stability to β-lactamase, iodometry (Perret); type: biochemical; settings: E. coli TK-3 penicillinase; PCG = 100; 30° C., pH 7.0
# Procedure: as §4
# [7] = system: Penicillinase (K. pneumoniae Y-4); experiment: Stability to β-lactamase, iodometry (Perret); type: biochemical; settings: K. pneumoniae Y-4 penicillinase; PCG = 100; 30° C., pH 7.0
# Procedure: as §4
# [8] = system: Penicillinase (P. aeruginosa GN-3379); experiment: Stability to β-lactamase, iodometry (Perret); type: biochemical; settings: P. aeruginosa GN-3379 penicillinase; PCG = 100; 30° C., pH 7.0
# Procedure: as §4
# T2 sequence (P18539 22-376): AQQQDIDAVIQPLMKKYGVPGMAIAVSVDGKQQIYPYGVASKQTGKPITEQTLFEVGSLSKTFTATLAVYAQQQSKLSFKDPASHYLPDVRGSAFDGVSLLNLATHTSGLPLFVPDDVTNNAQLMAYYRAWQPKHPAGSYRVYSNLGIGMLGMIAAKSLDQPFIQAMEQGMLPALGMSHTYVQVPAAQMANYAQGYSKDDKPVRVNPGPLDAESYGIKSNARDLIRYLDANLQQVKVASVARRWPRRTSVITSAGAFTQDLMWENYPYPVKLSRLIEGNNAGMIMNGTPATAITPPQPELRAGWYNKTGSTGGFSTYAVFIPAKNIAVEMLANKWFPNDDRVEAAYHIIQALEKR
# T1 sequence (P00811 20-377): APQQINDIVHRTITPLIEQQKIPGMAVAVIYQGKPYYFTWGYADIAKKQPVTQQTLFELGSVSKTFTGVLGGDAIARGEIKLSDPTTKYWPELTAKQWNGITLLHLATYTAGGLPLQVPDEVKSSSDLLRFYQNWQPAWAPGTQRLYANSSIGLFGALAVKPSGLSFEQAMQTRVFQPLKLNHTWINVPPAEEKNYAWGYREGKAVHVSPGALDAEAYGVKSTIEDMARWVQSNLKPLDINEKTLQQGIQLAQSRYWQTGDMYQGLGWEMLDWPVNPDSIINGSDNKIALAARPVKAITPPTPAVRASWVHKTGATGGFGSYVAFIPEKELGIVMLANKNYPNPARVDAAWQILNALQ
SMILES,MIC [1] [µg/mL],MIC [2] [µg/mL],MIC (Citrobacter N-7) [µg/mL],MIC (E. coli NIHJ) [µg/mL],MIC (Ent. cloacae IID977) [µg/mL],MIC (K. pneumoniae Y-50) [µg/mL],MIC (Klebsiella spp. Y-72) [µg/mL],MIC (Prot. vulgaris GN-76) [µg/mL],MIC (Ps. aeruginosa IFO-3445) [µg/mL],MIC (Ps. aeruginosa S-68) [µg/mL],MIC [3] [µg/mL],MIC (Ser. marcescens IID620) [µg/mL],MIC (Ser. marcescens W-8) [µg/mL],MIC (Ser. marcescens W-35) [µg/mL],"Stability to β-lactamase, relative degree of hydrolysis [4]","Stability to β-lactamase, relative degree of hydrolysis [5]","Stability to β-lactamase, relative degree of hydrolysis [6]","Stability to β-lactamase, relative degree of hydrolysis [7]","Stability to β-lactamase, relative degree of hydrolysis [8]"
CCN1CCN(C(=O)NC(C(=O)N[C@]2(OC)C(=O)N3C(C(=O)O)=C(CSc4nnnn4CC(=O)O)CS[C@@H]32)c2cccs2)C(=O)C1=O (some centres unmarked),25,50,1.56,≤ 0.1,25,6.25,25,0.78,25,50,6.25,0.78,50,100,–,–,–,–,–
CCN1CCN(C(=O)NC(C(=O)N[C@]2(OC)C(=O)N3C(C(=O)O)=C(CSc4nnnn4CCO)CS[C@@H]32)c2cccs2)C(=O)C1=O (some centres unmarked),6.25,12.5,1.56,≤ 0.1,25,0.39,1.56,0.39,12.5,12.5,3.13,0.2,50,12.5,–,–,–,–,–
CCN1CCN(C(=O)NC(C(=O)N[C@]2(OC)C(=O)N3C(C(=O)O)=C(CSc4nnnn4C)CS[C@@H]32)C2=CCC=CC2)C(=O)C1=O (some centres unmarked),6.25,25,6.25,≤ 0.1,25,0.78,12.5,3.13,12.5,25,3.13,0.78,100,50,–,–,–,–,–
"O=C(Cc1cccs1)N[C@@H]1C(=O)N2C(C(=O)[O-])=C(C[n+]3ccccc3)CS[C@H]12 [CER, Cephaloridin]",–,–,–,–,–,–,–,–,–,–,–,–,–,–,100,100,115,41,18
